Reference: patent US4699981A, “Cephalosporin derivatives” (Taisho Pharmaceutical Co., Ltd., priority 1985, dated 1987)
Converted amounts (≈) assume the structure as drawn. Structures can show the parent of a compound that is named as a salt. Where two headings read alike, the source gives them in different places.

Columns and labels:
[1] = system: Enterobactor cloacae IFO 13525; assay: Minimal inhibitory concentration, agar plate dilution method; type: cell-based
Procedure: (§1) The antibacterial activities of the compounds of the present invention against various bacteria (inoculum size : 10^6 cells/ml) were tested by the agar plate dilution method, and the results are shown in the following Table 1.

[2] = system: Escherichia coli NIHJ JC-2; assay: as above; type: cell-based; settings: NIHJJC2
Procedure: as §1

[3] = system: Klebsiella pneumoniae T 25; assay: as above; type: cell-based; settings: T25
Procedure: as §1

[4] = system: Pseudomonas aeruginosa NCTC 10490; assay: as above; type: cell-based; settings: NCTC10490
Procedure: as §1

[5] = system: Serratia marcescens IID 618; assay: as above; type: cell-based; settings: IID618
Procedure: as §1

[6] = Concentration of the compound in blood after oral administration to rats (bioassay); type: in vivo, Male wister rats; settings: rat, 50 mg/kg
Procedure: Male wister rats (7 weeks old) were administered orally with the test compound, and the change of the concentration of the compound in blood was measured.
Dosage of the test compound: 50 mg/kg
Quantitative method: Bioassy
test bacterium: Escherichia coli SC507)

[7] = Enterobactor cloacae IFO 13525, inoculum size 10^6 cells/ml, read-out: MIC
[8] = Escherichia coli NIHJ JC-2, inoculum size 10^6 cells/ml, read-out: MIC
[9] = Klebsiella pneumoniae T 25, inoculum size 10^6 cells/ml, read-out: MIC
[10] = Pseudomonas aeruginosa NCTC 10490, inoculum size 10^6 cells/ml, read-out: MIC
[11] = Serratia marcescens IID 618, inoculum size 10^6 cells/ml, read-out: MIC

Row | MIC [1, 7] [µg/mL] | MIC [2, 8] [µg/mL] | MIC [3, 9] [µg/mL] | MIC [4, 10] [µg/mL] | MIC [5, 11] [µg/mL] | concentration at 1 h [6] [ng/mL] | concentration at 2 h [6] [ng/mL] | concentration at 4 h [6] [ng/mL] | SMILES | MIC [1] [µg/mL] | MIC ([2]; Escherichia coli) [µg/mL] | MIC ([3]; Klebsiella pneumoniae) [µg/mL] | MIC ([4]; Pseudomonas aeruginosa) [µg/mL] | MIC ([5]; Serratia marcescens) [µg/mL]
1 | 25 | 0.2 | 0.39 | 25 | 1.56 | 37800 | 38900 | 32500 | COC(=O)/C=C\SC1=C(C(=O)O)N2C(=O)[C@@H](NC(=O)/C(=N\OCC(=O)O)c3csc(N)n3)[C@H]2SC1 [A, 7β-{α-(2-aminothiazole-4-yl)-β-[(Z)-carboxymethoxyimino]acetamido)}-3[(Z)-2-methoxycarbonylvinylthio]-3-cephem-4-carboxylic acid sodium salt] |  |  |  |  | 
2 | 12.5 (≈ 22.4 µM) | 0.2 (≈ 0.359 µM) | 0.39 (≈ 0.699 µM) | 3.13 (≈ 5.61 µM) | 0.39 (≈ 0.699 µM) | 34000 | 37100 | 31000 | CCOC(=O)/C=C\SC1=C(C(=O)O)N2C(=O)[C@@H](NC(=O)/C(=N\OCC(=O)O)c3csc(N)n3)[C@H]2SC1 [B] |  |  |  |  | 
3 | 6.25 (≈ 10.9 µM) | 0.39 (≈ 0.682 µM) | 0.39 (≈ 0.682 µM) | 12.5 (≈ 21.9 µM) | 0.39 (≈ 0.682 µM) |  |  |  | CC(C)OC(=O)/C=C\SC1=C(C(=O)O)N2C(=O)[C@@H](NC(=O)/C(=N\OCC(=O)O)c3csc(N)n3)[C@H]2SC1 [C] |  |  |  |  | 
4 |  |  |  |  |  |  |  |  | C=CCOC(=O)/C=C\SC1=C(C(=O)[O-])N2C(=O)[C@@H](NC(=O)/C(=N\OCC(=O)[O-])c3csc(N)n3)[C@H]2SC1.[Na+].[Na+] [D, 7β-{α-(2-aminothiazole-4-yl)-α-[(Z)-carboxymethoxyimino]acetamido}-3-[(Z)-2-allyloxycarbonylvinylthio]-3-cephem-4-carboxylic acid sodium salt] | 12.5 | 0.39 | 0.39 | 6.25 | 0.39
5 |  |  |  |  |  |  |  |  | CC1=C(C(=O)O)N2C(=O)[C@@H](NC(=O)[C@H](N)c3ccccc3)[C@H]2SC1 [YY, Cefalexin, reference compound] | > 100 | 12.5 (≈ 36 µM) | 100 (≈ 288 µM) | > 100 | > 100
